The record followed here is ChEMBL document CHEMBL1121560, “Synthesis and biological activity of 5-fluoro-2'-deoxyuridine 5'-phosphorodiamidates” (J Med Chem, 1980).

SMILES strings stand for the structures. pIC50: −log10 of the molar value. Active and inactive are the calls of the source.

As usually defined, the pIC50 is the IC50 on a negative log10 scale, so that one unit is a factor of ten. A high value points to a small IC50. Broadly, the inhibition is how much of the control response was suppressed. As usually defined, the half-life is the time needed for the level to fall by half in the phase considered.

In data set [1] the test system is L5178Y. The data set can be described thus: Comparative inhibition of L5178Y cell growth in vitro (concentration required for 50% inhibition). As to conditions: Mus musculus. The format is functional, cell-based.
Data set [2] deals with L5178Y. The data set can be described thus: In vitro percent inhibition at 10 e-8 M against L5178Y cell growth after 72 hr (replicate flasks inoculated with 10 e5 cells were treated with the nucleotide). The format is functional. Particulars: Mus musculus.
Data set [3] addresses T1, Thymidylate synthase (Lactobacillus casei) (UniProt P00469).
T1 sequence (whole entry): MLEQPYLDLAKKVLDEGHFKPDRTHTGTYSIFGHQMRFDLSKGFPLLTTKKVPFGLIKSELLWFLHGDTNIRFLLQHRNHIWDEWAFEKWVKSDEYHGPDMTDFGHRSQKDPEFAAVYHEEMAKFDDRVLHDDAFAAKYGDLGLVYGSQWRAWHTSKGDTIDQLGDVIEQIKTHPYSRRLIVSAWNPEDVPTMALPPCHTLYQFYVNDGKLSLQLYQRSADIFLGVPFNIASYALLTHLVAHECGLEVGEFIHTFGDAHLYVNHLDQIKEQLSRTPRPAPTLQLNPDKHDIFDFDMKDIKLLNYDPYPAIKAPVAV
In words: Compound was tested for its inhibition against Thymidylate synthase up to concentration of 1 mM; IA means inactive. As to conditions: Lacticaseibacillus casei.

Data set [4] relates to L5178Y. The data set can be described thus: (§1) Half-life for hydrolysis to 5-fluoro-2'-deoxyuridine-5'-phosphate at 100 degree Centigrade. The data set is classed as functional. Particulars: Mus musculus.
The nature of data set [5]: Half-life for hydrolysis to 5-fluoro-2'-deoxyuridine-5'-phosphate at 65 degree Centigrade. The data set is classed as ADME.
Data set [6] is described as follows: as §1. The format is ADME.
A short description of data set [7]: Half-life for hydrolysis to 5-fluoro-2'-deoxyuridine-5'-phosphate at […] Centigrade. The format is ADME.

In the data set on L5178Y [1], `O=c1[nH]c(=O)n([C@H]2C[C@H](O)[C@@H](COP(=O)(O)O)O2)cc1F` [5-FLUORODEOXYURIDYLATE] gave a negative logarithm of the IC50 (pIC50) of 8.85. The inhibition at 0.01 µM with L5178Y [2] amounted to 67%. For the same molecule, in data set [3], the inhibition entry was “inactive”.
`O=c1[nH]c(=O)n([C@H]2C[C@H](O)[C@@H](CO)O2)cc1F` [FLOXURIDINE] gave a pIC50 in the data set on L5178Y [1] of 9.12. Moreover, in data set [3], the inhibition result is “inactive”.
For the molecule `O=c1[nH]c(=O)n([C@H]2C[C@H](O)[C@@H](COP(=O)(N3CCOCC3)N3CCOCC3)O2)cc1F`, in the data set with L5178Y [2], testing at 0.01 µM gave an inhibition of 11%. The molecule also displayed a T1/2 with L5178Y [4] of 100 h. In data set [3], the inhibition entry was “inactive”. The same molecule had a half-life in data set [5] of 240 h.
`NP(N)(=O)OC[C@H]1O[C@@H](n2cc(F)c(=O)[nH]c2=O)C[C@@H]1O`: the half-life in data set [6] was 3.9 h; in data set [7], 0.25 h. The molecule also showed a pIC50 in the data set on L5178Y [1] of 8.70. The molecule further registered an inhibition at 0.01 µM in the data set on L5178Y [2] of 45%. In addition, the inhibition entry in data set [3] was “inactive”.
